# PubChem BioAssay AID328 (DTP/NCI, 2004)
# “And” between values parts separate entries of the source, which are not always exact repeats. Equal entries are not always repeated. Toxic doses and inconclusive results are not listed. Starred links: 1 amine or outer side, 2 acyl side, 3 side chain; linkers in the order of their positions; H or OH if unused. Positions of bridges follow the written chain, without caps; N, C: chain ends. Non-standard residues stand in square brackets, D forms with d. Residues, ends and D or L forms follow the SMILES beside them. Chains are numbered I, II in the order given. Actinocin(1to9) = Cc1c2oc3c(C)ccc(C(=O)[*:2])c3nc-2c(C(=O)[*:1])c(N)c1=O; X3 = O=C1CC(C(=O)[*:2])N([*:1])C1; NMeV = CN[CH](C(=O)O)C(C)C; Sar = CNCC(=O)O
# Test system: BDF1 mice, P388 leukemia ip, median survival T/C
# Assay: NCI In Vivo Anticancer Drug Screen. Data for tumor model P388 Leukemia (intraperitoneal) in B6D2F1 (BDF1) mice
# Details: endpoint: median survival time, higher = longer survival
# How it was run: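 Reported as T/C, where T is the survival measurement in dosed animals and C the same measurement in vehicle controls.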
# [1] = dose: 100.0 mg/kg/injection, schedule: Q01DX009 (ip), vehicle: saline with Tween-80
# [2] = dose: 200.0 mg/kg/injection, schedule: Q01DX009 (ip), vehicle: saline with Tween-80
compound,measurement,setting,value
[Cl][Co][Cl].[NH-]CCC[NH-].[NH-]CCC[NH-],T/C,"dose: 25.0 mg/kg/injection, schedule: Q04DX003 (ip), vehicle: saline",105 % of control
same,T/C,"dose: 50.0 mg/kg/injection, schedule: Q04DX003 (ip), vehicle: saline",110 % of control
CC(=O)O[C@H]1C(=O)O[C@@H]2C[C@H]3C(C)=CC(=O)[C@@H](O)[C@]3(C)[C@H]3[C@@]4(O)OC[C@]32[C@@H]1[C@@H](C)[C@H]4O,T/C,"dose: 0.13 mg/kg/injection, schedule: Q01DX010 (ip), vehicle: alcohol",227 % of control
same,T/C,"dose: 0.2 mg/kg/injection, schedule: Q01DX010 (ip), vehicle: alcohol",100 % of control
same,T/C,"dose: 0.4 mg/kg/injection, schedule: Q01DX010 (ip), vehicle: alcohol",150 % of control
same,T/C,"dose: 0.5 mg/kg/injection, schedule: Q01DX009 (ip), vehicle: saline with Tween-80",120 % of control
same,T/C,"dose: 0.6 mg/kg/injection, schedule: Q01DX010 (ip), vehicle: alcohol",166 % of control
same,T/C,"dose: 0.75 mg/kg/injection, schedule: Q01DX009 (ip), vehicle: saline",120 % of control
same,T/C,"dose: 0.75 mg/kg/injection, schedule: Q03HX008 (ip), vehicle: saline",110 % of control
same,T/C,"dose: 0.75 mg/kg/injection, schedule: Q03HX016 (ip), vehicle: saline",120 % of control
same,T/C,"dose: 1.0 mg/kg/injection, schedule: Q01DX009 (ip), vehicle: saline",100 % of control
same,T/C,"dose: 1.0 mg/kg/injection, schedule: Q01DX010 (ip), vehicle: other",116 % of control
same,T/C,"dose: 1.0 mg/kg/injection, schedule: Q01DX010 (ip), vehicle: saline",190 % of control
same,T/C,"dose: 1.5 mg/kg/injection, schedule: Q01DX005 (ip), vehicle: saline",100 % of control
same,T/C,"dose: 1.5 mg/kg/injection, schedule: Q03HX008 (ip), vehicle: saline",110 % of control
same,T/C,"dose: 1.5 mg/kg/injection, schedule: Q03HX024 (ip), vehicle: saline",110 % of control
same,T/C,"dose: 2.0 mg/kg/injection, schedule: Q01DX010 (ip), vehicle: alcohol",120 % of control
same,T/C,"dose: 2.0 mg/kg/injection, schedule: Q01DX010 (ip), vehicle: other",120 % of control
same,T/C,"dose: 2.0 mg/kg/injection, schedule: Q01DX010 (ip), vehicle: saline",190 % of control
same,T/C,"dose: 3.0 mg/kg/injection, schedule: Q01DX005 (ip), vehicle: saline",120 % of control
same,T/C,"dose: 4.0 mg/kg/injection, schedule: Q01DX010 (ip), vehicle: alcohol",120 % of control
same,T/C,"dose: 4.0 mg/kg/injection, schedule: Q01DX010 (ip), vehicle: saline",190 % of control
same,T/C,"dose: 6.0 mg/kg/injection, schedule: Q01DX005 (ip), vehicle: saline",100 % of control
same,T/C,"dose: 6.0 mg/kg/injection, schedule: Q01DX009 (ip), vehicle: saline",90 % of control
same,T/C,"dose: 6.0 mg/kg/injection, schedule: Q01DX010 (ip), vehicle: alcohol",213 % of control
same,T/C,"dose: 6.0 mg/kg/injection, schedule: Q04DX003 (ip), vehicle: saline",95 % of control
same,T/C,"dose: 6.0 mg/kg/injection, schedule: Q08DX002 (ip), vehicle: saline",100 % of control
same,T/C,"dose: 8.0 mg/kg/injection, schedule: Q01DX009 (ip), vehicle: saline",116 % of control
same,T/C,"dose: 8.0 mg/kg/injection, schedule: Q01DX010 (ip), vehicle: other",158 % of control
same,T/C,"dose: 9.0 mg/kg/injection, schedule: Q01DX010 (ip), vehicle: alcohol",159 % of control
same,T/C,"dose: 12.0 mg/kg/injection, schedule: Q01DX001 (ip), vehicle: saline",110 % of control
same,T/C,"dose: 12.0 mg/kg/injection, schedule: Q01DX005 (ip), vehicle: saline",120 % of control
same,T/C,"dose: 12.0 mg/kg/injection, schedule: Q08DX002 (ip), vehicle: saline",95 % of control
same,T/C,"dose: 13.0 mg/kg/injection, schedule: Q01DX010 (ip), vehicle: alcohol",213 % of control
same,T/C,"dose: 24.0 mg/kg/injection, schedule: Q04DX003 (ip), vehicle: saline",100 % of control
same,T/C,"dose: 24.0 mg/kg/injection, schedule: Q08DX002 (ip), vehicle: saline",100 % of control
same,T/C,"dose: 48.0 mg/kg/injection, schedule: Q04DX003 (ip), vehicle: saline",100 % of control
same,T/C,"dose: 48.0 mg/kg/injection, schedule: Q08DX002 (ip), vehicle: saline",100 % of control
same,T/C,"dose: 96.0 mg/kg/injection, schedule: Q01DX001 (ip), vehicle: saline",110 % of control
same,T/C,"dose: 96.0 mg/kg/injection, schedule: Q08DX002 (ip), vehicle: saline",100 % of control
same,T/C,"dose: 192.0 mg/kg/injection, schedule: Q01DX001 (ip), vehicle: saline",110 % of control
same,T/C,"dose: 57.0 micrograms/kg/injection, schedule: Q01DX010 (ip), vehicle: alcohol",111 % of control
same,T/C,"dose: 87.0 micrograms/kg/injection, schedule: Q01DX010 (ip), vehicle: alcohol",107 % of control
Cc1cccc(C(=O)CC(O)(C(F)(F)F)C(F)(F)F)c1,T/C,"dose: 100.0 mg/kg/injection, schedule: Q01DX001 (ip), vehicle: saline with Tween-80",104 % of control
same,T/C,"dose: 200.0 mg/kg/injection, schedule: Q01DX001 (ip), vehicle: saline with Tween-80",100 % of control
same,T/C,"dose: 400.0 mg/kg/injection, schedule: Q01DX001 (ip), vehicle: saline with Tween-80",109 % of control
"Cc1c2oc3c(C)ccc(C(=O)NC4C(=O)NC(C(C)C)C(=O)N5CCCC5C(=O)N(C)CC(=O)N(C)C(C(C)C)C(=O)OC4C)c3nc-2c(C(=O)NC2C(=O)NC(C(C)C)C(=O)N3CC(=O)CC3C(=O)N(C)CC(=O)N(C)C(C(C)C)C(=O)OC2C)c(N)c1=O (stereo not given) (I: TV[X3][Sar][NMeV] / II: TVP[Sar][NMeV]; ester I:1-I:C, II:1-II:C; linker I:N-II:N via Actinocin(1to9); configuration not given here)",T/C,"dose: 1.6 micrograms/kg/injection, schedule: Q01DX009 (ip), vehicle: water",120 % of control
same,T/C,"dose: 4.7 micrograms/kg/injection, schedule: Q04DX003 (ip), vehicle: water",163 % of control
same,T/C,"dose: 9.4 micrograms/kg/injection, schedule: Q04DX003 (ip), vehicle: water",162 % of control
same,T/C,"dose: 12.5 micrograms/kg/injection, schedule: Q01DX009 (ip), vehicle: water",172 % of control
same,T/C,"dose: 25.0 micrograms/kg/injection, schedule: Q01DX001 (ip), vehicle: water",155 % of control
same,T/C,"dose: 25.0 micrograms/kg/injection, schedule: Q01DX009 (ip), vehicle: water",120 % of control
same,T/C,"dose: 37.5 micrograms/kg/injection, schedule: Q04DX003 (ip), vehicle: water",175 % of control
same,T/C,"dose: 50.0 micrograms/kg/injection, schedule: Q01DX001 (ip), vehicle: water",155 % of control
same,T/C,"dose: 75.0 micrograms/kg/injection, schedule: Q04DX003 (ip), vehicle: water",86 % of control
ClCCCCCCCCCCc1ccccc1,T/C,"dose: 50.0 mg/kg/injection, schedule: Q04DX003 (ip), vehicle: saline with Tween-80",106 % of control
same,T/C,"dose: 100.0 mg/kg/injection, schedule: Q04DX003 (ip), vehicle: saline with Tween-80",109 % of control and 110 % of control
same,T/C,"dose: 200.0 mg/kg/injection, schedule: Q04DX003 (ip), vehicle: saline with Tween-80",108 % of control and 118 % of control
CCOc1ccc(/C=N\N=C\c2ccc(OCC)cc2)cc1,T/C,"dose: 12.5 mg/kg/injection, schedule: Q01DX009 (ip), vehicle: Klucel (hydroxypropylcellulose) (HPC)",100 % of control
same,T/C,"dose: 25.0 mg/kg/injection, schedule: Q01DX009 (ip), vehicle: Klucel (hydroxypropylcellulose) (HPC)",96 % of control
same,T/C,"dose: 100.0 mg/kg/injection, schedule: Q04DX003 (ip), vehicle: Klucel (hydroxypropylcellulose) (HPC)",109 % of control
same,T/C,"dose: 200.0 mg/kg/injection, schedule: Q04DX003 (ip), vehicle: Klucel (hydroxypropylcellulose) (HPC)",90 % of control
same,T/C,"dose: 400.0 mg/kg/injection, schedule: Q04DX003 (ip), vehicle: Klucel (hydroxypropylcellulose) (HPC)",90 % of control
CCCB(O)O,T/C,"dose: 100.0 mg/kg/injection, schedule: Q01DX001 (ip), vehicle: saline",100 % of control
same,T/C,"dose: 200.0 mg/kg/injection, schedule: Q01DX001 (ip), vehicle: saline",113 % of control
same,T/C,"dose: 400.0 mg/kg/injection, schedule: Q01DX001 (ip), vehicle: saline",95 % of control
C#CCOc1ccccc(Br)c1=O,T/C,"dose: 50.0 mg/kg/injection, schedule: Q04DX002 (ip), vehicle: saline with Tween-80",115 % of control
same,T/C,"dose: 100.0 mg/kg/injection, schedule: Q04DX002 (ip), vehicle: saline with Tween-80",104 % of control
same,T/C,"dose: 200.0 mg/kg/injection, schedule: Q04DX002 (ip), vehicle: saline with Tween-80",106 % of control
CCOC(=O)C(Cc1ccc(C)cc1)(NC(C)=O)C(=O)OCC,T/C,[1],92 % of control
same,T/C,[2],99 % of control
same,T/C,"dose: 400.0 mg/kg/injection, schedule: Q01DX009 (ip), vehicle: saline with Tween-80",101 % of control
O=C(Nc1ccccc1)OCc1ccc(OCc2ccccc2)cc1,T/C,"dose: 50.0 mg/kg/injection, schedule: Q01DX009 (ip), vehicle: saline with Tween-80",89 % of control
same,T/C,[1],122 % of control
same,T/C,[2],105 % of control
